These results are taken from ChEMBL document CHEMBL5352457, “Discovery of orally active 1,4,5,6,8-pentaazaacenaphthylens as novel, selective, and potent covalent BTK inhibitors for the treatment of rheumatoid arthritis” (Eur J Med Chem, 2023).

Each structure is given as a SMILES string. Values after ≈ are worked out from the molar mass of the structure shown.

Usually Cmax stands for the highest concentration seen after dosing. One may read the Tmax as the time from dosing to the highest level. As a reminder, the AUC is concentration integrated over time. A low value points to less exposure. The term clearance denotes the rate of elimination divided by the concentration. Usually Vd stands for a proportionality between amount in the body and measured concentration, not a real space. Broadly, the bioavailability is the share of a dose that reaches the circulation, judged against a reference dose that is usually intravenous. Higher therefore signals good availability. The term fraction remaining denotes what is left of the initial amount, in per cent. Low readings indicate more turnover, high ones less turnover. What is called solubility is the dissolved amount per volume that the medium holds. A higher solubility goes with much dissolved substance.

Data set [1] in a line: in vivo. Particulars: Sprague-Dawley, rat, po, 10 mg/kg.
Data set [2] is described as follows: in vivo. Particulars: Sprague-Dawley, rat, po, 10 mg/kg. This is another data set of the same source.
Data set [3] in a line: in vivo. The following applies: Sprague-Dawley, rat, iv, 1 mg/kg.
Data set [4] in a line: in vivo. Particulars: Sprague-Dawley, rat, po, 10 mg/kg. The source holds these as a separate data set.
Data set [5] can be described thus: in vivo. Particulars: Sprague-Dawley, rat, iv, 1 mg/kg. The source holds these as a separate data set.
Data set [6] can be described thus: in vivo. Particulars: Sprague-Dawley, rat, iv, 1 mg/kg. The source holds these as a separate data set.
A short description of data set [7]: in vivo. Particulars: Sprague-Dawley, rat, po, 10 mg/kg. The source holds these as a separate data set.
Data set [8] is described as follows: in vivo. Particulars: Sprague-Dawley, rat, plasma, po, 10 mg/kg.
Data set [9] in a line: physchem. Particulars: buffer, pH 7.4.
A short description of data set [10]: physchem. The following applies: buffer, pH 7.

For `C=CC(=O)N1CC[C@@H](N2N=C(Nc3ccc(Oc4ccccc4)cc3)c3c[nH]c4ncnc2c34)C1`, the Cmax at 24 h in “in vivo [1]” was found to be 52.5 ng/mL. For the same compound, the time to peak (Tmax) at 24 h in the data set “in vivo [2]” worked out at 1 h. For the same compound, the AUC at 24 h was found to be 454 ng·h/mL in “in vivo [3]” and 164 ng·h/mL in the data set “in vivo [4]”. The clearance at 24 h in the data set “in vivo [5]” is 36.8 mL/min/kg. Also, the Vd at 24 h in “in vivo [6]” was determined as 1.67 L/kg. In the data set “in vivo [7]”, this compound yielded a bioavailability at 24 h of 3.6%. The concentration at 1 h in “in vivo [8]” came out at 125 nM. In the data set “physchem [9]”, this compound returned an amount remaining at 24 h of 80.2%. The solubility in the data set “physchem [10]” came out at 174 µM (≈ 81 µg/mL).
